Assay results taken from patent US6740335B1, “Liposomal camptothecin formulations” (priority 1997, dated 2004).
Where a name gives a salt, the structure may show the parent alone.

Tests used:
BT-20 (Breast) = experiment: 3H-thymidine incorporation cytotoxicity assay, BT-20; type: cell-based, human; settings: Homo sapiens, BT-20, 42 h; read-out: Median IC50
Description: (§1) In vitro efficacy screening has been performed using GI147211 and liposomal formulations of GI147211. […] Standard tumor cell-based cytototoxicity assays assessing ^3H-thymidine incorporation were performed.
(§2) Tumor cells were seeded into 96-well tissue culture plates (1×10^4 cells/well)≡4 h prior to experimentation. […] Positive and negative (Tris treated) control groups were included on each assay plate. Tumor cells were then labeled with 0.25 μCi of [methyl-^3H] thymidine and incubated for 42 h under tissue culture conditions (37° C., 5% CO2, 100% relative humidity), except for C6, U251, A673 and B16-F1 cells which were incubated for 24 h. Cells were then lysed, harvested onto glass-fiber filters and unincorporated [methyl-^3H] thymidine removed by filter washing. Filters were processed for scintillation counting and cpm-^3H/well determined. […] Data are presented from multiple sets of experimentation, involving multiple liposomal formulations of GI147211.

ES-2 (ovarian carcinoma) = experiment: 3H-thymidine incorporation cytotoxicity assay, ES-2; type: cell-based, human; settings: Homo sapiens; ES-2, 42 h; read-out: Median IC50
Description: as §1, §2

[1] = system: H460 (Lung, Non-Small Cell); experiment: 3H-thymidine incorporation cytotoxicity assay, H460; type: cell-based, human; settings: Homo sapiens, NCI-H460, 42 h; read-out: Median IC50
Description: as §1, §2

HT-29 (Colon) = experiment: 3H-thymidine incorporation cytotoxicity assay, HT-29; type: cell-based, human; settings: Homo sapiens, HT-29, 42 h; read-out: Median IC50
Description: as §1, §2

MCF-7 (Breast) = experiment: 3H-thymidine incorporation cytotoxicity assay, MCF-7; type: cell-based, human; settings: Homo sapiens, MCF7; MCF-7, 42 h; read-out: Median IC50
Description: as §1, §2

MDA-MB-468 (Breast) = experiment: 3H-thymidine incorporation cytotoxicity assay, MDA-MB-468; type: cell-based, human; settings: Homo sapiens, MDA-MB-468, 42 h; read-out: Median IC50
Description: as §1, §2

[2] = system: SKOV-3 (ovarian carcinoma); experiment: 3H-thymidine incorporation cytotoxicity assay, SKOV-3; type: cell-based, human; settings: Homo sapiens, SK-OV-3; SKOV-3, 42 h; read-out: Median IC50
Description: as §1, §2

U251 (Glioblastoma) = experiment: 3H-thymidine incorporation cytotoxicity assay, U251; type: cell-based, human; settings: Homo sapiens, U-251; U251, 24 h; read-out: Median IC50
Description: as §1, §2

U937 (Lymphoma) = experiment: 3H-thymidine incorporation cytotoxicity assay, U937; type: cell-based, human; settings: Homo sapiens, U-937; U937, 42 h; read-out: Median IC50
Description: as §1, §2

SW48 human colon tumor = experiment: Xenograft efficacy at identical dose, SW48; type: in vivo, nude mice; settings: SW48, 9 mg/kg, QD7 × 3, two cycles; for % TGI: day 35, dihydrochloride
Description: (§3) In all the studies performed, subcutaneous tumors implanted on the anterior flank of nude mice were allowed to grow to an established size of 200+/−50 mm^3 prior to dosing drugs.
(§4) The xenograft models included the HT29 and SW48 human colon tumor lines, and the KB and KBV head-neck tumors. Drugs were dosed at either 6 or 9 mg/kg intravenously, on a weekly schedule for 3 consecutive weeks. In the SW48 xenograft study, the animals received a total of two cycles of therapy (6 injections), with a 10 day recovery period separating the two therapeutic courses. In the HT29 xenograft study a 12 and 14 mg/kg dose group was added.

HT29 human colon tumor = experiment: Xenograft efficacy at identical dose, HT29; type: in vivo; settings: for Log 10 Cell Kill / T-C (time to reach 1,000% Tumor Volume, treated vs control): QD7 × 3; for % TGI: QD7 × 3, day 26
Description: as §3, §4

MDR + , KBV Xenograft = experiment: Repeat dose efficacy at equal toxic doses, KBV xenograft; type: in vivo, nude mice; settings: days 1, 8 and 15
Description: Drugs were dosed on days 1,8 and 15.

CCC1(O)C(=O)OCc2c1cc1n(c2=O)Cc2c-1nc1cc3c(cc1c2CN1CCN(C)CC1)OCCO3 (stereo in doubt) [GI147211, 7-(4-methylpiperazinomethylene)-10,11-ethylenedioxy-20(S)-camptothecin dihydrochloride]
IC50 (BT-20 (Breast)): 0.0866 ng/mL
IC50 (ES-2 (ovarian carcinoma)): 0.489 ng/mL
IC50 [1]: 3.61 ng/mL
IC50 (HT-29 (Colon)): 0.763 ng/mL
IC50 (MCF-7 (Breast)): 0.0441 µg/mL
IC50 (MDA-MB-468 (Breast)): 6.42 ng/mL
IC50 [2]: 1.63 ng/mL
IC50 (U251 (Glioblastoma)): 3.11 ng/mL
IC50 (U937 (Lymphoma)): 4.22 ng/mL
Log 10 Cell Kill (SW48 human colon tumor): 1.9
T-C (time to reach 1,000% Tumor Volume, treated vs control) (SW48 human colon tumor): 40 days
% TGI (SW48 human colon tumor): 86%
% TGI (SW48 human colon tumor; listed as free drug): 86%
Log 10 Cell Kill (HT29 human colon tumor; HT29, 6 mg/kg iv): 0.753
T-C (time to reach 1,000% Tumor Volume, treated vs control) (HT29 human colon tumor; HT29, 6 mg/kg iv): 12 days
% TGI (HT29 human colon tumor; HT29, 6 mg/kg iv): 48%
Log 10 Cell Kill (HT29 human colon tumor; HT29, 9 mg/kg iv): 0.753
T-C (time to reach 1,000% Tumor Volume, treated vs control) (HT29 human colon tumor; HT29, 9 mg/kg iv): 12 days
% TGI (HT29 human colon tumor; HT29, 9 mg/kg iv, dihydrochloride): 54%
% TGI (HT29 human colon tumor; HT29, 9 mg/kg iv, listed as free drug, dihydrochloride): 54%
Log 10 Cell Kill (HT29 human colon tumor; HT29, 12 mg/kg iv): 0.815
T-C (time to reach 1,000% Tumor Volume, treated vs control) (HT29 human colon tumor; HT29, 12 mg/kg iv): 13 days
% TGI (HT29 human colon tumor; HT29, 12 mg/kg iv): 70%
Log 10 Cell Kill (HT29 human colon tumor; HT29, 14 mg/kg iv): 1.94
T-C (time to reach 1,000% Tumor Volume, treated vs control) (HT29 human colon tumor; HT29, 14 mg/kg iv): 31 days
% TGI (HT29 human colon tumor; HT29, 14 mg/kg iv): 78%
Days to 1000% (MDR + , KBV Xenograft; 12 mg/kg): 16.15 days
Log 10 Cell Kill (MDR + , KBV Xenograft; 12 mg/kg): 0.53
T − C (MDR + , KBV Xenograft; 12 mg/kg): 7.58
Toxic Deaths (MDR + , KBV Xenograft; 12 mg/kg): 3
Days to 1000% (MDR + , KBV Xenograft; 14 mg/kg): 17 days
Log 10 Cell Kill (MDR + , KBV Xenograft; 14 mg/kg): 0.59
T − C (MDR + , KBV Xenograft; 14 mg/kg): 8.43
Toxic Deaths (MDR + , KBV Xenograft; 14 mg/kg): 3
Days to 1000% (MDR + , KBV Xenograft; 16 mg/kg): 17 days
Log 10 Cell Kill (MDR + , KBV Xenograft; 16 mg/kg): 0.59
T − C (MDR + , KBV Xenograft; 16 mg/kg): 8.43
Toxic Deaths (MDR + , KBV Xenograft; 16 mg/kg): 1
